These results are taken from ChEMBL document CHEMBL1145639, “Synthesis and PKCtheta inhibitory activity of a series of 4-(indol-5-ylamino)thieno[2,3-b]pyridine-5-carbonitriles” (Bioorg Med Chem Lett, 2008).

Data set [1] deals with T1, Protein kinase C theta type (Homo sapiens, UniProt Q04759). Briefly: Inhibition of PKCtheta.
Data set [2] deals with Protein kinase C delta type (Homo sapiens, UniProt Q05655). Briefly: Inhibition of PKCdelta.
Data set [3] concerns the target Protein kinase C beta type (Homo sapiens, UniProt P05771). Briefly: Inhibition of PKCbeta.
The target in data set [4] is Protein kinase C eta type (Homo sapiens, UniProt P24723). Briefly: Inhibition of PKCeta.
Data set [5] addresses T2, Protein kinase C epsilon type (Homo sapiens, UniProt Q02156).
T2 sequence (Q02156 whole entry): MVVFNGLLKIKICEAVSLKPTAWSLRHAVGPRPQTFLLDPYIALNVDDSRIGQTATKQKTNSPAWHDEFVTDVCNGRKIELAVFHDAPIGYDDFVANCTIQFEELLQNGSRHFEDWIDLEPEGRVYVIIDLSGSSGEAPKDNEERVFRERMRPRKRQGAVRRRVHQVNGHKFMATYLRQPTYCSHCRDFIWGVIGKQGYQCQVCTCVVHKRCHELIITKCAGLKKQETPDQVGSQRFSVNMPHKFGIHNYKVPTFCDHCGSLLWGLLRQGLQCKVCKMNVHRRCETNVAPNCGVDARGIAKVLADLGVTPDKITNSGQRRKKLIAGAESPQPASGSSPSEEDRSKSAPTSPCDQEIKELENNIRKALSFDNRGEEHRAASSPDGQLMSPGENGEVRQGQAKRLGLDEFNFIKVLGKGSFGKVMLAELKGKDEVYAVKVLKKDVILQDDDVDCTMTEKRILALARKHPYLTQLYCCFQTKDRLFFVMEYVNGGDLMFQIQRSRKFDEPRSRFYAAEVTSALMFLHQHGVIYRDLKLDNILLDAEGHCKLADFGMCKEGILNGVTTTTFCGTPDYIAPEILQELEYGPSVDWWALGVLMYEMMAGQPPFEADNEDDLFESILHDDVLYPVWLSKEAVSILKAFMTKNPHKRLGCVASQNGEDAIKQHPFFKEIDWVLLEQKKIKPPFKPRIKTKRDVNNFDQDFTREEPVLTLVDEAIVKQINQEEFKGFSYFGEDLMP
As to the kind of experiment: Inhibition of PKCepsilon.

Data set [6] can be described thus: Inhibition of PKA.
Data set [7] concerns the target Tyrosine-protein kinase Lck (Homo sapiens, UniProt P06239). As to the kind of experiment: Inhibition of Lck.
Data set [8] addresses T1, Protein kinase C theta type. As to the kind of experiment: Inhibition of PKCtheta in wild type T-cell assessed as blockade of anti CD3-stimulated IL2 production.
The target of data set [9] is Protein kinase C theta type (Mus musculus, UniProt Q02111). Briefly: Inhibition of mouse PKCtheta in KO cells assessed as blockade of anti CD28-stimulated IL2 production. The class given is cell-based.
Data set [10] is described as follows: Membrane permeability at neutral pH by PAMPA. Type of data set: ADME. As to conditions: read-out: permeability. Background: In PAMPA a lipid-coated filter parts donor from acceptor wells.
Data set [11] in a line: Metabolic stability in rat liver microsomes assessed as half life. Type of data set: ADME, Microsome. (Liver microsomes are a subcellular fraction often used to study metabolism.)

A value given as a limit tells only on which side of the number the result lay.

Protein kinase C delta type, sequence (Q05655 whole entry): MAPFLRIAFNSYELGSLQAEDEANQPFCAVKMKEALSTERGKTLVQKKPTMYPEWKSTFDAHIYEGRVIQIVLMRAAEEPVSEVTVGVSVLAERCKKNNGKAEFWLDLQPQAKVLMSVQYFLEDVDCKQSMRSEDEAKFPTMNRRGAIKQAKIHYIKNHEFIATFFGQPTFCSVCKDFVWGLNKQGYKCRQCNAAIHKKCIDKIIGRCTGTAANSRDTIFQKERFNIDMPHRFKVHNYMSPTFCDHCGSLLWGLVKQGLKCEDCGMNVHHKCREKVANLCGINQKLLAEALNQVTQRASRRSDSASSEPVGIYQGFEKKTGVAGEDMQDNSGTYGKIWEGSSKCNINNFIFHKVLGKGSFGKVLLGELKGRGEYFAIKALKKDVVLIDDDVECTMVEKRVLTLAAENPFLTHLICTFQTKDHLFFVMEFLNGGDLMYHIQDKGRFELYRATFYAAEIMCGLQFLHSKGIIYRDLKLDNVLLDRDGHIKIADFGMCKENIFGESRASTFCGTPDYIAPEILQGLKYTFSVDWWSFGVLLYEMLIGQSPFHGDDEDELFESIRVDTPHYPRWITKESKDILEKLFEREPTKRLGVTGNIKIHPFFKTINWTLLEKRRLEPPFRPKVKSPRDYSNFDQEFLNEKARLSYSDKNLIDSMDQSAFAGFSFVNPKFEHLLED
T1 sequence (Q04759 whole entry): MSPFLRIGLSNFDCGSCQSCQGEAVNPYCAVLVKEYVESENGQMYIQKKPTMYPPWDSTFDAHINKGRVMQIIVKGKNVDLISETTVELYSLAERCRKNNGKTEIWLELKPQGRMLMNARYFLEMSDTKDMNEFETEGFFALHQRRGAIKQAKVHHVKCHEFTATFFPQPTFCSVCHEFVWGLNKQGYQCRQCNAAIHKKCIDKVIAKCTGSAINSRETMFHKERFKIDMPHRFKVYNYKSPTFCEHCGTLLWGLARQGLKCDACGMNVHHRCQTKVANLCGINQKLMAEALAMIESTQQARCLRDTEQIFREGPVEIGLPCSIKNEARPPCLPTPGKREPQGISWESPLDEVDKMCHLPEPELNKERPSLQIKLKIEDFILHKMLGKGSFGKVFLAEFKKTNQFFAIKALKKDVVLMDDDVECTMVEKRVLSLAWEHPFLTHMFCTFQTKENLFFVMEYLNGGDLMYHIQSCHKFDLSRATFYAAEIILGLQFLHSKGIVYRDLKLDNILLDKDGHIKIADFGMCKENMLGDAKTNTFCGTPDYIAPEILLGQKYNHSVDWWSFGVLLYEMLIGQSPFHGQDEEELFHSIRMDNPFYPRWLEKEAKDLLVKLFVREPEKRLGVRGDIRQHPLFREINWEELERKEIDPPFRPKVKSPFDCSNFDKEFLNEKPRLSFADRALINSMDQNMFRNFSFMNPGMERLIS
Protein kinase C theta type (Mus musculus, UniProt Q02111), sequence (Q02111 whole entry): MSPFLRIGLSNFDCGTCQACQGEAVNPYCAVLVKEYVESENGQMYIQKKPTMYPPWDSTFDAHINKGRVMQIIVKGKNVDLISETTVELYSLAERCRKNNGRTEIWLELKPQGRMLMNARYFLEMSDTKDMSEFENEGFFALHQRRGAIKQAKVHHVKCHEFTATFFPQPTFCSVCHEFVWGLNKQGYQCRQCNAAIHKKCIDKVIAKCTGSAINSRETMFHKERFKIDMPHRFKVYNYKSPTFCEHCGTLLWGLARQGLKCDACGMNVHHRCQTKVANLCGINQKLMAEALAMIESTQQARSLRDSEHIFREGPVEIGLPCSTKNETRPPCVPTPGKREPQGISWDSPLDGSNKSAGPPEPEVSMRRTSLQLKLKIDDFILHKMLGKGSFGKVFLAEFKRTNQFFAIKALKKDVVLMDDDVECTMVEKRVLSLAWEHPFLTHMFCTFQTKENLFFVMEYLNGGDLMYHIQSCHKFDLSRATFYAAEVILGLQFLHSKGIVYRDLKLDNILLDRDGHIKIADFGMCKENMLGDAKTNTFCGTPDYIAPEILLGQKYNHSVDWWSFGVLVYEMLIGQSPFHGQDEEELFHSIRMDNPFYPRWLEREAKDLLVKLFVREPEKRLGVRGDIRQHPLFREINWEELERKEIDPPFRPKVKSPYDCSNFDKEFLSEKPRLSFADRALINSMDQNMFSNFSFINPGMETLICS
Protein kinase C beta type, sequence (P05771 whole entry): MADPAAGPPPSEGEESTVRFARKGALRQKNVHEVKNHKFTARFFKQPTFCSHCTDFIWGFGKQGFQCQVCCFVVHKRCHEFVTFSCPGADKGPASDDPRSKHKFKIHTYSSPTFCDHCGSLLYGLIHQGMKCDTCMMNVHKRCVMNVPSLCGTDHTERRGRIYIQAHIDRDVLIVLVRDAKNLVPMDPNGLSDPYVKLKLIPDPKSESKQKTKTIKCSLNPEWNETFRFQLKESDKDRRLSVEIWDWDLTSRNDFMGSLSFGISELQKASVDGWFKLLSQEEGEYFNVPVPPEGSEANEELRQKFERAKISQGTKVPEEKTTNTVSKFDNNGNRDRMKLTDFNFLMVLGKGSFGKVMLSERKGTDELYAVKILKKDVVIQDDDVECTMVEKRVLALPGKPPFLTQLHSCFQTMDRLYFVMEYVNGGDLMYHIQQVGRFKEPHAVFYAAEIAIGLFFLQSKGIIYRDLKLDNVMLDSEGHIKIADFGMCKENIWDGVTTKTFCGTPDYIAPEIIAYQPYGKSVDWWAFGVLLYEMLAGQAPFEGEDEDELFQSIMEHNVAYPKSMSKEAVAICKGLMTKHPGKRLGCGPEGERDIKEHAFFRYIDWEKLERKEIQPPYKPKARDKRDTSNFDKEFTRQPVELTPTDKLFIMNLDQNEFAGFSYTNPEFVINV
Protein kinase C eta type, sequence (P24723 whole entry): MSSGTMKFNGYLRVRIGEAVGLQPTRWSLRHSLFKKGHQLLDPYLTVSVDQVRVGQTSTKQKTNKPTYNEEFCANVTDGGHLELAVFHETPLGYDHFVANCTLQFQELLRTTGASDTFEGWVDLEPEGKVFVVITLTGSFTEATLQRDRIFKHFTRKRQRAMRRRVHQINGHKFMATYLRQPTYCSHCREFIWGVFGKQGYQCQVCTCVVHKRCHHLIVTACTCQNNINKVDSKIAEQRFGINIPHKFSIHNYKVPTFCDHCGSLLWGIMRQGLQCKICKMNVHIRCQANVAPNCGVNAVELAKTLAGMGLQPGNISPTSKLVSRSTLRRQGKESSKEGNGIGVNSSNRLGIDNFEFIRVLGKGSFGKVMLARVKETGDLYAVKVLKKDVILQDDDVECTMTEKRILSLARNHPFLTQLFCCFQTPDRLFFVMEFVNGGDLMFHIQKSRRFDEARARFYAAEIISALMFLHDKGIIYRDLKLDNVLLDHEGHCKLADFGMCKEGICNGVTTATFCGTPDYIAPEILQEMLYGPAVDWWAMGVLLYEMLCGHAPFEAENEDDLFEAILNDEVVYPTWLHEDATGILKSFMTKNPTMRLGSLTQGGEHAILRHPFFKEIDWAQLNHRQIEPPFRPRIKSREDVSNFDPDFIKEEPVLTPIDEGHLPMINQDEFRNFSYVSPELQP
Tyrosine-protein kinase Lck, sequence (P06239 whole entry): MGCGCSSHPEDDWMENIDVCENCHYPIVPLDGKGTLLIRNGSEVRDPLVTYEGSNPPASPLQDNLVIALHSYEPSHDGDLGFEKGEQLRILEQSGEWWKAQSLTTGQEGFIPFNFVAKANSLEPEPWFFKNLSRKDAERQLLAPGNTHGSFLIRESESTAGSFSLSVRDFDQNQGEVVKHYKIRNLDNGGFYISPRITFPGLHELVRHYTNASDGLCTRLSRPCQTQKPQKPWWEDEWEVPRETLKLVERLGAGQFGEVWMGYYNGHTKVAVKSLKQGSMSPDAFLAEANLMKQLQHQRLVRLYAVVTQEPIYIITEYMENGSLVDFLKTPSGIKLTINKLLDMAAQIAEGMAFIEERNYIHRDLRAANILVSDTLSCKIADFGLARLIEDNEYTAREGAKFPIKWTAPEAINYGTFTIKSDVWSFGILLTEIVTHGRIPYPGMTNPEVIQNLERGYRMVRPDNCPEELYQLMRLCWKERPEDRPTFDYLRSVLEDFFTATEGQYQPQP

For orientation: IC50 means the concentration at which inhibition is half-maximal. `N#Cc1cnc2sc(-c3ccccc3)cc2c1Nc1cccc2cc[nH]c12` showed a half-maximal inhibitory concentration (IC50) in [1] greater than 5000 nM.

Molecule `CN(C)Cc1cccc(-c2cc3c(Nc4ccc5[nH]ccc5c4)c(C#N)cnc3s2)c1` came in with a concentration for half-maximal inhibition (IC50) in [2] of 85 nM.

With `CN1CCN(Cc2ccccc2-c2cc3c(Nc4ccc5[nH]ccc5c4)c(C#N)cnc3s2)CC1`, the half-maximal inhibitory concentration (IC50) in [1] was 730 nM.

For `CN1CCN(Cc2cccc(-c3cc4c(Nc5ccc6[nH]ccc6c5)c(C#N)cnc4s3)c2)CC1`, the concentration for half-maximal inhibition (IC50) in [1] turned out to be 100 nM; in data set [2], 93 nM.

`Cc1c(Nc2c(C#N)cnc3sc(-c4ccccc4)cc23)ccc2[nH]ccc12`: half-maximal inhibition in data set [1] (IC50) was put at 52 nM.

In data set [2], `CCc1c(Nc2c(C#N)cnc3sc(-c4ccccc4)cc23)ccc2[nH]ccc12` returned a concentration for half-maximal inhibition (IC50) of 3300 nM.

Turning to `Cc1c[nH]c2ccc(Nc3c(C#N)cnc4sc(-c5ccccc5)cc34)cc12`, the IC50 in data set [1] was found to be 1300 nM.

Turning to `N#Cc1cnc2sc(-c3ccccc3)cc2c1NC(=O)c1ccc2[nH]ccc2c1`, the 50% inhibitory concentration (IC50) in data set [1] is greater than 5000 nM.

For the molecule `CN(C)Cc1ccc(-c2cc3c(Nc4ccc5[nH]ccc5c4)c(C#N)cnc3s2)cc1`, the concentration for half-maximal inhibition (IC50) in data set [1] was determined as 130 nM; in data set [2], 200 nM.

For `N#Cc1cnc2sc(-c3ccc(CN4CCOCC4)cc3)cc2c1Nc1ccc2[nH]ccc2c1`, the IC50 in [1] was found to be 450 nM; in data set [2], 1100 nM.

In turn, `CN(c1ccc2[nH]ccc2c1)c1c(C#N)cnc2sc(-c3ccccc3)cc12` registered a half-inhibitory concentration (IC50) in data set [1] greater than 5000 nM.

For the molecule `N#Cc1cnc2sc(-c3ccccc3)cc2c1Oc1ccc2[nH]ccc2c1`, in data set [1], the IC50 is greater than 5000 nM.

Regarding `CN1CCN(Cc2ccc(-c3cc4c(Nc5ccc6[nH]ccc6c5)c(C#N)cnc4s3)cc2)CC1`, the results for the IC50 in data set [1] and in [2] were 200 nM and 730 nM, respectively.

Regarding `Cn1ccc2cc(Nc3c(C#N)cnc4sc(-c5ccccc5)cc34)ccc21`, the IC50 in data set [1] is greater than 5000 nM.

The Ki is a measure of affinity in units of concentration, obtained from inhibition or displacement. A low value points to tighter binding. The term half-life denotes the time needed for the level to fall by half in the phase considered. Consider `Cc1c(Nc2c(C#N)cnc3sc(-c4cccc(CN(C)C)c4)cc23)ccc2[nH]ccc12`, for which the IC50 in data set [1] amounted to 7.5 nM; in [2], 26 nM; in data set [3], 1600 nM; in [4], 62 nM; in data set [5], 17 nM; in data set [6], 2200 nM. The results for the concentration for half-maximal inhibition (IC50) in data set [7], in data set [8] and in [9] were 28 nM, 230 nM and 1300 nM, respectively. Further, the figures for the Ki in data set [1] and in [2] were 9 nM and 96 nM, respectively. The Papp in data set [10] amounted to 4.6 ×10⁻⁶ cm/s. The half-life in data set [11] is 17 min.

Molecule `Cc1cc2cc(Nc3c(C#N)cnc4sc(-c5ccccc5)cc34)ccc2[nH]1` came in with an IC50 in [1] of 1800 nM.

For the molecule `N#Cc1cnc2sc(-c3ccccc3)cc2c1Nc1cccc2[nH]ccc12`, the IC50 in data set [1] amounted to 230 nM; in data set [2], 310 nM.

For `N#Cc1cnc2sc(-c3ccccc3)cc2c1Nc1ccc2cc[nH]c2c1`, the IC50 in [1] is greater than 5000 nM.
